From publication PMC12248599, “Exploring the Bioavailability of Red Grape Skin Extract Polyphenols: A Caco-2 Cell Model Study” (Foods, 2025)
Several values for one entry are separate records, joined by “and”; a condition that tells them apart may be missing. Equal entries are not always repeated. Marks after values point to notes of the source that are not given here.

Key:
[1] = Caco-2 monolayer transport (bioavailability) study, AB and BA directions; format: in vitro ADME, Homo sapiens; settings: human
How it was run: (§1)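 Grape skin extract in HBSS (15 or 22 mg/mL) applied to 21-day Caco-2 monolayers (TEER ≥300 Ω cm²) in AB and BA directions; acceptor samples quantified per polyphenol by HPLC-UV. Papp from steady-state flux over 1.12 cm², efflux ratio as Papp(BA)/Papp(AB), plus transport efficiency (C/C0).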

Caco-2 cell monolayer = test: as above; format: in vitro ADME, Homo sapiens; settings: for reduction in concentration on the apical (donor) side: 0 to 180 min; for TE (%) transport efficiency: after 180 min
How it was run: as §1

[2] = AB experiment, S1 (15 mg/mL GSE)
[3] = AB experiment, S2 (22 mg/mL GSE)
[4] = AB experiment, acceptor side, S1 (15 mg/mL GSE)
[5] = AB experiment, acceptor side, S2 (22 mg/mL GSE)
[6] = AB experiment, donor side, S1 (15 mg/mL GSE)
[7] = AB experiment, donor side, S2 (22 mg/mL GSE)
[8] = BA experiment, acceptor side, S1 (15 mg/mL GSE)
[9] = BA experiment, acceptor side, S2 (22 mg/mL GSE)
[10] = BA experiment, donor side, S1 (15 mg/mL GSE)
[11] = BA experiment, donor side, S2 (22 mg/mL GSE)

## O=c1c(O[C@@H]2O[C@H](CO)[C@@H](O)[C@H](O)[C@H]2O)c(-c2ccc(O)cc2)oc2cc(O)cc(O)c12 [K3G, kaempferol-3-glucoside]
[1]; Caco-2, Papp (BA)/Papp (AB), S1 (15 mg/mL GSE), read-out: ER (efflux ratio)
  efflux ratio at 180 min, 15 mg/mL: 1.1
[1]; Caco-2, Papp (BA)/Papp (AB), S2 (22 mg/mL GSE), read-out: ER (efflux ratio)
  efflux ratio at 180 min, 22 mg/mL: 1.3
[1]; Caco-2, text statement, S1 and S2
  efflux ratio at 180 min: > 1
[1]; Caco-2, apical to basolateral, S1 (15 mg/mL GSE)
  Papp A→B at 180 min, 15 mg/mL: 1160 ± 20 ×10⁻⁶ cm/s
[1]; Caco-2, apical to basolateral, S2 (22 mg/mL GSE)
  Papp A→B at 180 min, 22 mg/mL: 730 ± 40 ×10⁻⁶ cm/s
[1]; Caco-2, basolateral to apical, S1 (15 mg/mL GSE)
  Papp B→A at 180 min, 15 mg/mL: 1230 ± 30 ×10⁻⁶ cm/s
[1]; Caco-2, basolateral to apical, S2 (22 mg/mL GSE)
  Papp B→A at 180 min, 22 mg/mL: 970 ± 30 ×10⁻⁶ cm/s
Caco-2 cell monolayer; [2]
  reduction in concentration on the apical (donor) side: 33.6 ± 0.5%
  TE (%) transport efficiency: 97 ± 2%
Caco-2 cell monolayer; [3]
  reduction in concentration on the apical (donor) side: 28.7 ± 0.9%
  TE (%) transport efficiency: 60 ± 1% and 60.2 ± 0.9%
Caco-2 cell monolayer; [4]
  Basolateral Side 75 min: 6.2 ± 0.1 ^b mg/L
  Basolateral Side 90 min: 6.7 ± 0.1 ^c mg/L
  Basolateral Side 115 min: 7.1 ± 0.1 ^c mg/L
  Basolateral Side 180 min: 7.4 ± 0.1 ^c mg/L
Caco-2 cell monolayer; [5]
  Basolateral Side 75 min: 6.4 ± 0.1 ^b mg/L
  Basolateral Side 90 min: 6.8 ± 0.2 ^c mg/L
  Basolateral Side 115 min: 7.2 ± 0.2 ^d,c mg/L
  Basolateral Side 180 min: 7.6 ± 0.2 ^c mg/L
Caco-2 cell monolayer; [6]
  Apical Side 0 min: 7.7 ± 0.3 mg/L and 7.7 ± 0.3 ^a mg/L
  Apical Side 75 min: 7.1 ± 0.2 ^b mg/L
  Apical Side 90 min: 6.7 ± 0.2 ^b,c mg/L
  Apical Side 115 min: 6.4 ± 0.2 ^c mg/L
  Apical Side 180 min: 5.0 ± 0.2 mg/L and 5.1 ± 0.2 ^d mg/L
Caco-2 cell monolayer; [7]
  Apical Side 0 min: 12.7 ± 0.3 mg/L and 12.7 ± 0.3 ^a mg/L
  Apical Side 75 min: 11.8 ± 0.3 ^b mg/L
  Apical Side 90 min: 11.3 ± 0.3 ^b,c mg/L
  Apical Side 115 min: 10.6 ± 0.23 ^c mg/L
  Apical Side 180 min: 9.0 ± 0.2 mg/L and 9.0 ± 0.2 ^d mg/L
Caco-2 cell monolayer; AB experiments, basolateral side
  detection at the acceptor side: detected
Caco-2 cell monolayer; BA experiment, S1 (15 mg/mL GSE)
  TE (%) transport efficiency: 130 ± 3%
Caco-2 cell monolayer; BA experiment, S2 (22 mg/mL GSE)
  TE (%) transport efficiency: 109.0 ± 0.9%
Caco-2 cell monolayer; [8]
  Apical Side 75 min: 6.1 ± 0.3 ^b mg/L
  Apical Side 90 min: 7.4 ± 0.3 ^c mg/L
  Apical Side 115 min: 8.7 ± 0.4 ^d mg/L
  Apical Side 180 min: 9.9 ± 0.4 ^c mg/L
Caco-2 cell monolayer; [9]
  Apical Side 75 min: 6.8 ± 0.2 ^a,b mg/L
  Apical Side 90 min: 8.1 ± 0.2 ^b,c mg/L
  Apical Side 115 min: 9.4 ± 0.3 ^c,d mg/L
  Apical Side 180 min: 10.6 ± 0.3 ^c mg/L
Caco-2 cell monolayer; [10]
  Basolateral Side 0 min: 7.6 ± 0.2 ^a mg/L
  Basolateral Side 75 min: 7.2 ± 0.2 ^b mg/L
  Basolateral Side 90 min: 6.9 ± 0.2 ^c mg/L
  Basolateral Side 115 min: 6.6 ± 0.1 ^d mg/L
  Basolateral Side 180 min: 6.1 ± 0.1 ^c mg/L
Caco-2 cell monolayer; [11]
  Basolateral Side 0 min: 9.8 ± 0.2 ^a mg/L
  Basolateral Side 75 min: 9.5 ± 0.2 ^b mg/L
  Basolateral Side 90 min: 9.3 ± 0.2 ^c mg/L
  Basolateral Side 115 min: 9.1 ± 0.2 ^d mg/L
  Basolateral Side 180 min: 8.5 ± 0.2 ^c mg/L
Caco-2 cell monolayer; BA experiments, apical side
  detection at the acceptor side: detected
